Data reported in paper PMC7249047, “Search for ABCB1 Modulators Among 2-Amine-5-Arylideneimidazolones as a New Perspective to Overcome Cancer Multidrug Resistance” (Molecules, 2020).
Counter-ions that a name gives are not always drawn.

Assays:
[1] = Cytotoxicity MTT assay, 24 h, PAR cells; format: cell-based; settings: mouse, parental (PAR) L5178 mouse T-cell lymphoma cells, read-out: Cytotoxic effect IC50
Description: (§1) The cytotoxicity of compounds 7–20 was examined in both aforementioned PAR and MDR mouse T-lymphoma cell lines, using the MTT assay to estimate IC50 values. The selectivity index for cytotoxic action on MDR with respect to PAR cells was calculated (SI, Table 3). […] This range of SI may indicate ABCB1-efflux pump substrate properties for the whole series (7–20), especially distinct in the case of 19 (SI ≤ 0.29), and slightly weaker for 8, 12, 16, and 18.
(§2) L5178 mouse T-cell lymphoma cells (PAR) (ECACC Cat. No. 87111908, obtained from FDA, Silver Spring, MD, USA) were transfected with pHa MDR1/A retrovirus, as previously described by Cornwell et al.. The ABCB1-expressing cell line L5178Y (MDR) was selected by culturing the infected cells with colchicine. The parental L5178 mouse T-cell lymphoma cells and the L5178Y human ABCB1-transfected subline were cultured in McCoy’s 5A medium (Sigma-Aldrich, St Louis, MO, USA) supplemented with 10% heat-inactivated horse serum (Sigma-Aldrich, St Louis, MO, USA), 200 mM L-glutamine (Sigma-Aldrich, St Louis, MO, USA), and a penicillin-streptomycin (Sigma-Aldrich, St Louis, MO, USA) mixture in concentrations of 100 U/L and 10 mg/L, respectively. The cell lines were incubated at 37 °C, in a 5% CO2, 95% air atmosphere.
(§3) Cytotoxicity and antiproliferative assays were performed following the procedure described in the literature. Parental and multidrug-resistant mouse T-lymphoma cells were used to determine the effect of the arylideneimidazolones on the growth of cells. The effects of increasing concentrations of arylideneimidazolones on cell growth were tested in 96-well flat-bottomed microtiter plates. The compounds were diluted in a volume of 100 μL of medium.
(§4) In the case of the mouse T-lymphoma cells, the two-fold serial dilutions were prepared in 100 μL of McCoy’s 5A, horizontally. The parental (PAR) and multidrug-resistant (MDR) mouse T-lymphoma cells were adjusted to a density of 1 × 10^4 cells (for cytotoxic assay) and 6 × 10^3 (for antiproliferative assay) in 100 μL of McCoy’s 5A medium and were added to each well, with the exception of the medium control wells.
(§5) The culture plates were incubated at 37 °C for 24 h (for cytotoxicity assay) and 72 h (for antiproliferative assay); at the end of the incubation period, 20 μL of MTT (thiazolyl blue tetrazolium bromide, Sigma) solution (from a stock solution of 5 mg/mL) were added to each well. After incubation at 37 °C for 4 h, 100 μL of sodium dodecyl sulfate (SDS) (Sigma) solution (10% in 0.01 M HCI) were added to each well and the plates were further incubated at 37 °C overnight. Cell growth was determined by measuring the optical density (OD) at 540/630 nm with a Multiscan EX ELISA reader (Thermo Labsystems, Cheshire, WA, USA).
(§6) Results have been expressed in terms of IC50, defined as the inhibitory dose that reduces the growth of the cells exposed to the tested compounds by 50%, each representing the mean of a minimum of three independent experiments.

ABCB1 efflux pump = ABCB1 efflux pump (Homo sapiens, UniProt P08183); assay: Rhodamine 123 accumulation assay (flow cytometry); settings: for FAR Quotient (%): FAR of compound related to FAR of VER tested at 20 µM; for FAR (fluorescence activity ratio): rhodamine 123 accumulation, MDR vs PAR mouse T-lymphoma cells
Description: The study was carried out on mouse T-lymphoma cell lines, including the parental sensitive line (PAR) and its multidrug-resistant subline (MDR) transfected with the human MDR1 (ABCB1) gene. […] The fluorescence activity ratio (FAR), as a measure of the efflux pump modulating properties, was calculated based on the fluorescence data obtained [23, 24, 25]. […] The parental L5178 mouse T-cell lymphoma cells and the L5178Y human ABCB1-transfected subline were cultured in McCoy’s 5A medium (Sigma-Aldrich, St Louis, MO, USA) supplemented with 10% heat-inactivated horse serum (Sigma-Aldrich, St Louis, MO, USA), 200 mM L-glutamine (Sigma-Aldrich, St Louis, MO, USA), and a penicillin-streptomycin (Sigma-Aldrich, St Louis, MO, USA) mixture in concentrations of 100 U/L and 10 mg/L, respectively.
The potency of the tested compounds as inhibitors of the ABCB1 efflux pump was determined using a fluorescence-based detection system, described previously in the literature [23, 26]. […] The parental (PAR) and multidrug-resistant (MDR) mouse T-lymphoma cells were adjusted to a density of 2 × 10^6/mL, re-suspended in serum-free McCoy’s 5A medium, and distributed in 0.5 mL aliquots into Eppendorf centrifuge tubes. […] The fluorescence intensity of the cell population was measured with a Partec CyFlow flow cytometer (Partec, Munster, Germany). […] The mean fluorescence intensity (%) was calculated for the treated MDR and PAR mouse T-lymphoma cells as compared to the untreated cells.

[2] = system: parental (PAR) mouse T-lymphoma cells; assay: Antiproliferative MTT assay, 72 h, PAR cells; format: cell-based; settings: read-out: Antiproliferative effect IC50
Description: (§7) The ABCB1-expressing cell line L5178Y (MDR) was selected by culturing the infected cells with colchicine. The parental L5178 mouse T-cell lymphoma cells and the L5178Y human ABCB1-transfected subline were cultured in McCoy’s 5A medium (Sigma-Aldrich, St Louis, MO, USA) supplemented with 10% heat-inactivated horse serum (Sigma-Aldrich, St Louis, MO, USA), 200 mM L-glutamine (Sigma-Aldrich, St Louis, MO, USA), and a penicillin-streptomycin (Sigma-Aldrich, St Louis, MO, USA) mixture in concentrations of 100 U/L and 10 mg/L, respectively.
as §3, §4
(§8) Cell growth was determined by measuring the optical density (OD) at 540/630 nm with a Multiscan EX ELISA reader (Thermo Labsystems, Cheshire, WA, USA).

[3] = system: multidrug-resistant (MDR) mouse T-lymphoma cells; assay: Antiproliferative MTT assay, 72 h, MDR cells; format: cell-based; settings: for SI (selectivity index), antiproliferative: MDR with respect to PAR cells; for IC50: Mus musculus, MDR cells, 72 h, MTT, read-out: Antiproliferative effect IC50
Description: as §7, §3, §4, §8

[4] = Cytotoxicity MTT assay, 24 h, MDR cells; format: cell-based; settings: mouse; for IC50 at 24 h: MDR cells, MTT, read-out: Cytotoxic effect IC50; for selectivity ratio at 24 h: cytotoxic action on MDR with respect to PAR cells, read-out: SI (selectivity index), cytotoxicity
Description: as §1, §2, §3, §4, §5, §6

[5] = concentration 20 µM, VER values for assay group 1 / 2

Chain of ABCB1 efflux pump (P08183 whole entry): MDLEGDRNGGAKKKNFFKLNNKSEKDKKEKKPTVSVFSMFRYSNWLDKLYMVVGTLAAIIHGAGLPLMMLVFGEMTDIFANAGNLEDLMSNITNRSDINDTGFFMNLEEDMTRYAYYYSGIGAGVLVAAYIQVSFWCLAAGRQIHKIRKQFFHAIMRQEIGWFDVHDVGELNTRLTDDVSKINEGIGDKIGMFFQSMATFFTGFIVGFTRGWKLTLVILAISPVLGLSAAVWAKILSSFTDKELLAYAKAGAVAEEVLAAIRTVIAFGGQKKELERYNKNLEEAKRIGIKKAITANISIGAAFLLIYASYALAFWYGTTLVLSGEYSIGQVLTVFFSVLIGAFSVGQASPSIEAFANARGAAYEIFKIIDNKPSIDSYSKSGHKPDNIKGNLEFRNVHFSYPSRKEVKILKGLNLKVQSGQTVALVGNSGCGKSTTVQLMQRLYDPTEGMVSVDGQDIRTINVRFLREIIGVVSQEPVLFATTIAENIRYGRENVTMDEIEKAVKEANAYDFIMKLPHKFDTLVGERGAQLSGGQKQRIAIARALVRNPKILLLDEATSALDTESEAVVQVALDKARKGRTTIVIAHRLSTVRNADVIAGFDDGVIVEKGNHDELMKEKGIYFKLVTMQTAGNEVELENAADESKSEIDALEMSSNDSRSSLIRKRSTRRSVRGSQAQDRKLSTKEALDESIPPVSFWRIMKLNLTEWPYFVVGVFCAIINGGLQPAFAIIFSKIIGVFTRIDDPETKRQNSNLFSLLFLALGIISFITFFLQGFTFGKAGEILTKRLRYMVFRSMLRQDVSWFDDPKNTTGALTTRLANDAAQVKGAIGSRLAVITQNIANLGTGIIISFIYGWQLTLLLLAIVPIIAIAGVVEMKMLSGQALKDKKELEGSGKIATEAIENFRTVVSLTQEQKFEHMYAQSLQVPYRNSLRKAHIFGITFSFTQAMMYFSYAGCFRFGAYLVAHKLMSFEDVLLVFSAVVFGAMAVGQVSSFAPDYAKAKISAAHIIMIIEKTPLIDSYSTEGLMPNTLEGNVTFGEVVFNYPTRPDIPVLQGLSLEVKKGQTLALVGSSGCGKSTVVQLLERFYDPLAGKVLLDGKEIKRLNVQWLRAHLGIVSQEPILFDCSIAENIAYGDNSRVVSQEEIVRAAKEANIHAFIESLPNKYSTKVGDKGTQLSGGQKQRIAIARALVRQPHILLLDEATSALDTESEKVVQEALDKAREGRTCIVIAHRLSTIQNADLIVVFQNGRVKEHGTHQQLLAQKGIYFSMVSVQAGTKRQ

| SMILES | melting point | IC50 at 24 h [1] | FAR Quotient (%) (ABCB1 efflux pump; concentration 2 µM) | FAR (fluorescence activity ratio) (ABCB1 efflux pump; concentration 2 µM) | FAR Quotient (%) (ABCB1 efflux pump; concentration 20 µM) | FAR (fluorescence activity ratio) (ABCB1 efflux pump; [5]) | IC50 [2] | SI (selectivity index), antiproliferative [3] | IC50 [3] | IC50 at 24 h [4] | selectivity ratio at 24 h [4] |
| --- | --- | --- | --- | --- | --- | --- | --- | --- | --- | --- | --- |
| NC1=N/C(=C\c2ccc(-c3ccccc3)cc2)C(=O)N1CCN1CCOCC1 (as salt: hydrochloride) [Compound 14] | 266 to 270 °C |  |  |  |  |  |  |  |  |  |  |
| Cl.O=C1NC(N2CCOCC2)=N/C1=C\c1ccc(-c2ccccc2)cc1 [Compound 7, (Z)-5-(Biphen-4-ylmethylene)-2-morpholino-3H-imidazol-4(5H)-one hydrochloride] | 248 to 252 °C | 53.5 µM | 7.31% | 0.955 | 7.09% | 0.927 | 17.6 µM | 0.67 | 26.3 µM | 54.2 µM | 0.99 |
| Cl.O=C1N=C(N2CCC(N3CCOCC3)CC2)N/C1=C\c1ccc(-c2ccccc2)cc1 [Compound 8, (Z)-5-(Biphen-4-ylmethylene)-2-(4-morpholinopiperidin-1-yl)-imidazol-4(5H)-one hydrochloride] | 267 to 269 °C | 24 µM | 8.49% | 1.359 | 15.04% | 2.409 | 14.8 µM | 0.57 | 26 µM | 46.4 µM | 0.52 |
| Cl.O=C1N=C(N2CCN(CCN3CCOCC3)CC2)N/C1=C\c1ccc(-c2ccccc2)cc1 [Compound 9, (Z)-5-(Biphen-4-ylmethylene)-2-(4-(2-morpholinoethyl)piperazin-1-yl)-imidazol-4(5H)-one hydrochloride] | 305 to 307 °C | 12.8 µM | 5.86% | 0.766 | 12.58% | 1.645 | 7.78 µM | 0.47 | 16.5 µM | 18.1 µM | 0.71 |
| Cl.O=C1N=C(N2CCC(N3CCOCC3)CC2)N/C1=C\c1cccc(Oc2ccccc2)c1 [Compound 10, (Z)-5-(3-Phenoxybenzylidene)-2-(4-morpholinopiperidin-1-yl)-imidazol-4(5H)-one hydrochloride] | 289 to 292 °C | 54 µM | 6.92% | 1.108 | 12.44% | 1.992 | 26.4 µM | 1.18 | 22.4 µM | 63.8 µM | 0.85 |
| Cl.O=C1N=C(N2CCC(N3CCOCC3)CC2)N/C1=C\c1c2ccccc2cc2ccccc12 [Compound 13, (Z)-5-(Anthracen-10-ylmethylene)-2-(4-morpholinopiperidin-1-yl)-imidazol-4(5H)-one hydrochloride] | 303 to 305 °C | 82.2 µM | 6.04% | 0.968 | 12.94% | 2.073 | 17.4 µM | 0.36 | 48.6 µM | > 100 µM | ≤ 0.82 |
| NC1=N/C(=C\c2ccc(-c3ccccc3)cc2)C(=O)N1CCN1CCOCC1 [Compound 14] |  | 36.9 µM | 6.22% | 0.814 | 6.48% | 0.847 | 24.9 µM | 0.89 | 27.9 µM | 57.4 µM | 0.64 |
| Cl.NC1=N/C(=C\c2ccc(-c3ccccc3)cc2)C(=O)N1CCCN1CCOCC1 [Compound 15, (Z)-5-(Biphen-4-ylmethylene)-2-amino-3-(3-morpholinopropyl)-imidazol-4(5H)-one hydrochloride] | 248 to 252 °C | 17.5 µM | 6.78% | 0.887 | 16.98% | 2.221 | 10.3 µM | 0.75 | 13.6 µM | 20.8 µM | 0.84 |
| NC1=N/C(=C\c2cccc(Oc3ccccc3)c2)C(=O)N1CCCN1CCOCC1 [Compound 16] |  | 16 µM | 7.09% | 0.927 | 18.55% | 2.426 | 11.4 µM | 0.94 | 12.2 µM | 31.3 µM | 0.51 |
| Cl.NC1=N/C(=C\c2ccc(Oc3ccccc3)cc2)C(=O)N1CCCN1CCOCC1 [Compound 17, (Z)-5-(4-Phenoxybenzylidene)-2-amino-3-(3-morpholinopropyl)-imidazol-4(5H)-one hydrochloride] | 210 to 212 °C | 21.5 µM | 5.80% | 0.929 | 14.37% | 2.301 | 12.2 µM | 0.85 | 14.2 µM | 23.4 µM | 0.92 |
| NC1=N/C(=C\c2c3ccccc3cc3ccccc23)C(=O)N1CCCN1CCOCC1 [Compound 19] |  | 28.6 µM | 7.94% | 1.272 | 10.08% | 1.615 | 14.4 µM | 0.33 | 43.8 µM | > 100 µM | ≤ 0.29 |
| Cl.NC1=N/C(=C\c2cc3ccccc3c3ccccc23)C(=O)N1CCCN1CCOCC1 [Compound 20, (Z)-5-(Phenanthren-9-ylmethylene)-2-amino-3-(3-morpholinopropyl)-imidazol-4(5H)-one hydrochloride] | 238 to 240 °C | 19.6 µM | 5.59% | 0.896 | 7.72% | 1.237 | 14.8 µM | 0.85 | 17.3 µM | 24.9 µM | 0.79 |
| COc1cccc2c1C(=O)c1c(O)c3c(c(O)c1C2=O)C[C@@](O)(C(=O)CO)C[C@@H]3O[C@H]1C[C@H](N)[C@H](O)[C@H](C)O1 [DOX, doxorubicin, reference compound] |  | 0.7 µM |  |  |  |  | 0.28 µM | 0.16 | 1.75 µM | 2.14 µM | 0.33 |
